In US20140179619A1, “POLYPEPTIDE, NUCLEOTIDE SEQUENCE THEREOF, AND METHOD FOR USING THE SAME FOR PREVENTING DNA SYNTHESIS AND INHIBITING CELL PROLIFERATION” (Wuhan Yicheng Biotech, Inc., priority 2011, published 2014):
No end group written: not given here.

How the values were obtained:
[1] = system: human granulocytic leukemia cells K562; experiment: Growth of human leukemia tumor in mice; conditions: K562 subcutaneous in mice, tumor weight vs control, injection every other day 7 times, after two weeks; PTD-P15 1 mg, Glivec 10 mcg
Excerpt: After 5×10^6human granulocytic leukemia cells K562 injected into the subcutaneous tissue of mice, the mice were randomly divided into five groups. […] After two weeks, the mice were killed, from which the tumors grown in the subcutaneous tissue of the mice were taken out and weighed.

[2] = system: MCF-7 (breast cancer cell line); experiment: Cell cycle distribution by FCM of GFP-positive transfected cells; format: cell-based; conditions: Cells MCF7, GFP-positive cells sorted two days after transfection
Method: (§1) The impact of P15 on cell proliferation is tested with NIH/3T3 (fibroblast and eptithlial cells, purchased from American ATCC, Cat No. CRL-1658) and MCF-7 (breast cancer cell line, purchased from American ATCC, Cat No. HTB-22).
(§2) Plasmid used for experiment: pEGFP-P15 (to express fused protein P15-GFP); control plasmid: pEGFP-N1
(§3) After the plasmid for transfection and the lipofectamine reagent (purchased from American Invitrogen, Cat No. 11668) were mixed, the mixture stayed for 15 minutes at room temperature. Then the mixture was first introduced into cells (with a cell density of about 50%) cultured in DMEM without serum for 5 hours of cultivation at 37° C. and next into SBF with a mass concentration of 10% for 48 hours of cultivation. […] In addition, by the use of FCM, it was easy to separate and purify the positive fluorescent protein cells. The symbolic indicators to test cell proliferation such as cell cycle were used to study and testify the impact of P15 on cell proliferation, while in these experiments, only the cells that express fluorescent proteins were used as control group.
(§4) First, we used the above mentioned plasmid to transfect 3T3 and MCF7, and used FCM to sort the positive GFP cells transfected with DNA and analyzed the cycle distribution of these cells two days later.

NIH/3T3 = experiment: as above; format: cell-based
Method: as §1, §2, §3, §4

Cells MCF7 = experiment: BrdU penetration in DNA (DNA synthesis) in transfected cells; format: cell-based
Method: (§5) DNA synthesis is the symbol of cell proliferation. In the next experiment, we tested the impact of P15 on DNA synthesis. Within the 15 hours after 3T3 and MCF7 transfecting pEGFP-N 1 and expressing P15-GFP plasmid for two days, the BrdU labeled […] that can penetrate in the newly synthesized DNA chain were added in cell culture fluid. The positive GFP cells in plasmid were detected and transfected with immunofluorescence technique, and the positive rate of BrdU penetration in DNA (this reflects the rate of DNA synthesis) was ascertained.

Cells 3T3 = experiment: as above; format: cell-based
Method: as §5

[3] = Cells 3T3, GFP-positive cells sorted two days after transfection

Cc1ccc(NC(=O)c2ccc(CN3CCN(C)CC3)cc2)cc1Nc1nccc(-c2cccnc2)n1 [Glivec]
Inhibition ratio [1]: 48%

P15-GFP: fused protein consisted of P15 and GFP, P15 connected to the end N of GFP, expressed from plasmid pEGFP-P15 (MPYSTELIFYIEMDP-{GFP})
G0/G1 [2]: 85.6%
G2/M [2]: 3.3%
S [2]: 11.1%
G0/G1 (NIH/3T3; [3]): 52.1%
G2/M (NIH/3T3; [3]): 25.7%
S (NIH/3T3; [3]): 22.1%
Positive BrdU cells (Cells MCF7; Cells MCF7, BrdU 15 hours, two days after transfection): 5.2%
Inhibition ratio (Cells MCF7; Cells MCF7, DNA synthesis, relative to GFP): 83.4%
Positive BrdU cells (Cells 3T3; Cells 3T3, BrdU 15 hours, two days after transfection): 12.5%
Inhibition ratio (Cells 3T3; Cells 3T3, DNA synthesis, relative to GFP): 76.8%

asparaginic acid-arginine-arginine-asparaginic acid-leucine-tyrosine-asparaginic acid-asparaginic acid-asparaginic acid-asparaginic acid-lysine-asparaginic acid-arginine-methionine-alanine-glycine-threonine-methionine [Control polypeptide]
Inhibition ratio [1]: −2%

methionine-proline-tyrosine-serine-threonine-glutamic acid-leucine-isoleucine-phenylalanine-tyrosine-isoleucine-glutamic acid-methionine-asparaginic acid-proline [P15]
impact on cell apoptosis (NIH/3T3; expression of P15 in 3T3 and MCF7): no obvious impact on cell apoptosis
